Results: patent US11111270B2, “Inhibitor of apoptosis protein (IAP) antagonists” (Sanford Burnham Prebys Medical Discovery Institute, priority 2012, dated 2021)

What was measured:
XIAP BIR1/2 = XIAP BIR1/2 (Homo sapiens, UniProt P98170); assay: XIAP BIR1/2 Ki; type: binding
XIAP BIR3 = XIAP BIR3 (Homo sapiens (Human), UniProt P98170); assay: XIAP BIR3 Ki; type: binding
ML-IAP = ML-IAP (Homo sapiens (Human), UniProt Q96CA5); assay: ML-IAP Ki; type: binding
MDA-MB-231 cells = assay: MDA-MB-231 cell survival (Cell Titer Glo); type: cell-based
Method: (§1) 5000 PPC-1 cells were plated and grown overnight. Compounds were plated and 4 hrs later, TRAIL was added to half of the plate while RPMI was added to the other half of the plate as a control. Plates were return to the incubator for 24 hrs. Plates were removed from the incubator and placed on the bench for 30 min and then 25 uL of Cell Titer Glo were added per well. Plates were placed on a rocker and then read on a luminometer. 5000 MDA-MB-231 cells were plated per well. Compound was added and 4 hrs later, TRAIL was added at 5 ng/mL; RPMI was added for a minus TRAIL control. Plates were incubated an additional 24 hrs, removed to the bench for 30 min, and then 25 uL of cell titer glo was added per well. Plates were placed on a rocker and read on a luminometer. Data were fit using PRISM.

PPC-1 cells [1] = assay: PPC-1 cell survival with TRAIL (Cell Titer Glo); type: cell-based
Method: as §1

PPC-1 cells [2] = assay: PPC-1 cell survival with TNFα; type: cell-based
Method: as §1, with “Compounds were plated and 4 hrs later, TRAIL was added to half of the plate while RPMI was added to the other half of the plate as a control.” left out

Chain of ML-IAP (Q96CA5 whole entry, species assumed): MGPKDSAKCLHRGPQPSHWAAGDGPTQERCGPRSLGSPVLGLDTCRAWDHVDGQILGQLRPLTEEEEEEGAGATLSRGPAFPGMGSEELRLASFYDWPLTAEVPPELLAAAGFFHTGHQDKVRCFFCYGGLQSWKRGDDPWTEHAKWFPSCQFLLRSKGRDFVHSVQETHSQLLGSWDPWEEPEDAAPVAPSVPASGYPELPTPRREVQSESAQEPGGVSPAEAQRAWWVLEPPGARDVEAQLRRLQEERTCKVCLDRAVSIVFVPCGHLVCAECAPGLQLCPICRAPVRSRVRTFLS
Chain of XIAP BIR3 (P98170 241-356): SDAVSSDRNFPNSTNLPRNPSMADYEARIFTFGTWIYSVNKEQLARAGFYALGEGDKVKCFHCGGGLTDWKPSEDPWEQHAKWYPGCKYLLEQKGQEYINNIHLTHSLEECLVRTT
Chain of XIAP BIR1/2 (P98170 whole entry, looked up): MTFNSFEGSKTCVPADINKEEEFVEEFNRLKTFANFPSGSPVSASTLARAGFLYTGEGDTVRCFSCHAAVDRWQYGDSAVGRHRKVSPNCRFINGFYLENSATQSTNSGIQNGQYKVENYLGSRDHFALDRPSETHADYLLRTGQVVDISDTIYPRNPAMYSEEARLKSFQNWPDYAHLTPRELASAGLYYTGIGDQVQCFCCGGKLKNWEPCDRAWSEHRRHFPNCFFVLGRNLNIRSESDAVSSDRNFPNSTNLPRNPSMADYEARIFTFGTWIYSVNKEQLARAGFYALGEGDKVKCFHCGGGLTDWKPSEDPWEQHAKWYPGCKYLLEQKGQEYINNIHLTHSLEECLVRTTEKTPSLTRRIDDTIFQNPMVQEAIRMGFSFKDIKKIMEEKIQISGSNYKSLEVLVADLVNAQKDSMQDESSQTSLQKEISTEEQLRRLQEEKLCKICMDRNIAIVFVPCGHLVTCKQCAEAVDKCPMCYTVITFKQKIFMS

| Compound | Ki (XIAP BIR1/2; Table B-1) [µM] | Ki (XIAP BIR3; Table B-1) [µM] | other results |
| --- | --- | --- | --- |
| CN[C@@H](C)C(=O)N[C@H]1CO[C@H]2CCC(C(=O)Nc3ccc(OC)cc3)N2C1=O (stereo partly shown) [Product 3] | > 50 | – | – |
| CNC(C)C(=O)N[C@H]1CO[C@H]2CCC(C(=O)Nc3ccc(OC)cc3)N2C1=O (stereo partly shown) [Product 4] | > 50 | 25 to 50 | – |
| CN[C@@H](C)C(=O)N[C@H]1CO[C@H]2CCC(C(=O)NCc3ccccc3)N2C1=O (stereo partly shown) [Product 5] | > 50 | – | – |
| CN[C@@H](C)C(=O)N[C@H]1CO[C@H]2CCC(C(=O)Nc3ccc(Cl)cc3)N2C1=O (stereo partly shown) [Product 8] | > 50 | – | – |
| CN[C@@H](C)C(=O)N[C@H]1CO[C@H]2CCC(C(=O)NC3CCCc4ccccc43)N2C1=O (stereo partly shown) [Product 9] | > 50 | < 25 | – |
| CN[C@@H](C)C(=O)N[C@@H]1C(=O)N2C(C(=O)NC3CCCc4ccccc43)CC[C@@H]2O[C@@H]1C (stereo partly shown) [Product 10] | > 50 | < 25 | Ki (ML-IAP; Table B-1): < 25 µM |
| CN[C@@H](C)C(=O)N[C@@H]1C(=O)N2C(C(=O)Nc3cccc4ccccc34)CC[C@@H]2O[C@@H]1C (stereo partly shown) [Product 11] | > 50 | – | – |
| CN[C@@H](C)C(=O)N[C@H]1CCO[C@H]2CCC(C(=O)N[C@@H]3CCCc4ccccc43)N2C1=O (stereo partly shown) [Product 12] | > 50 | < 25 | MDA-MB-231 LD50 (MDA-MB-231 cells): A (A = ≤ 25 micromolar); Ki (ML-IAP; Table B-1): < 25 µM; PPC-1 (TRAIL) LD50 (PPC-1 cells [1]): A (A = ≤ 25 micromolar); PPC-1 (TNFα) LD50 (PPC-1 cells [2]): A (A = ≤ 25 micromolar) |
| CN[C@@H](C)C(=O)NC1CCO[C@H]2CCC(C(=O)Nc3cccc4ccccc34)N2C1=O (stereo partly shown) [Product 13] | < 25 | < 25 | – |
| CN[C@@H](C)C(=O)N[C@H]1CCO[C@H]2CCC(C(=O)NC(c3ccccc3)c3ccccc3)N2C1=O (stereo partly shown) [Product 14] | > 50 | < 25 | Ki (ML-IAP; Table B-1): < 25 µM |
| CN[C@@H](C)C(=O)N[C@@H]1C(=O)N2C(C(=O)NC(c3ccccc3)c3ccccc3)CC[C@@H]2O[C@@H]1C (stereo partly shown) [Product 15] | > 50 | – | – |
| CN[C@@H](C)C(=O)N[C@H]1CCCNC2CCC(C(=O)N[C@@H]3CCCc4ccccc43)N2C1=O (stereo partly shown) [Product 16] | – | < 25 | – |
| CN[C@@H](C)C(=O)N[C@H]1CCCNC2CCC(C(=O)Nc3cccc4ccccc34)N2C1=O (stereo partly shown) [Product 17] | < 25 | < 25 | – |
| CN[C@@H](C)C(=O)N[C@H]1CCO[C@H]2c3ccccc3C(C(=O)N[C@@H]3CCCc4ccccc43)N2C1=O (stereo partly shown) [Product 17a] | – | – | Ki (ML-IAP; Table 2-2): < 25 µM; Ki (XIAP BIR3; Table 2-2): < 25 µM; Ki (XIAP BIR1/2; Table 2-2): > 50 µM |
| CN[C@@H](C)C(=O)N[C@H]1CCO[C@H]2CC(C)(C)C(C(=O)N[C@@H]3CCCc4ccccc43)N2C1=O (stereo partly shown) [Product 17b] | – | – | Ki (ML-IAP; Table 2-2): < 25 µM; Ki (XIAP BIR3; Table 2-2): < 25 µM; Ki (XIAP BIR1/2; Table 2-2): < 25 µM |
| CN[C@@H](C)C(=O)N[C@H]1CCS[C@H]2CC(C)(C)C(C(=O)N[C@@H]3CCCc4ccccc43)N2C1=O (stereo partly shown) [Product 17c] | – | – | Ki (ML-IAP; Table 2-2): < 25 µM; Ki (XIAP BIR3; Table 2-2): < 25 µM; Ki (XIAP BIR1/2; Table 2-2): < 25 µM |
| CC(=O)N(C)[C@@H](C)C(=O)N[C@H]1CCCN(C(C)=O)[C@H]2CCC(C(=O)Nc3cccc4ccccc34)N2C1=O (stereo partly shown) [Product 18] | > 50 | – | – |
| CN[C@@H](C)C(=O)N[C@H]1CCCN(C(C)=O)C2CCC(C(=O)N[C@@H]3CCCc4ccccc43)N2C1=O (stereo partly shown) [Product 20] | > 50 | < 25 | – |
| CN[C@@H](C)C(=O)NC1CCO[C@H]2CC[C@H](C(=O)n3ccc4ccccc43)N2C1=O (stereo partly shown) [Product 22] | > 50 | 25 to 50 | – |
| CN[C@@H](C)C(=O)NC1CCO[C@H]2CC[C@@H](C(=O)n3ccc4ccccc43)N2C1=O (stereo partly shown) [Product 23] | > 50 | 25 to 50 | – |

| Compound | Ki (XIAP BIR1/2; Table B-1) [µM] | Ki (XIAP BIR3; Table B-1) [µM] | other results |
| --- | --- | --- | --- |
| CN[C@@H](C)C(=O)N[C@H]1CCO[C@H]2CC[C@@H](C(=O)Nc3cccc4ccccc34)N2C1=O [Product 25] | < 25 | < 25 | – |
| CN[C@@H](C)C(=O)N[C@H]1CCO[C@H]2c3ccccc3C(C(=O)N[C@@H]3CCCc4ccccc43)N2C1=O (stereo partly shown) [Product 27] | > 50 | < 25 | Ki (ML-IAP; Table B-1): < 25 µM; PPC-1 (TRAIL) LD50 (PPC-1 cells [1]): A (A = ≤ 25 micromolar); PPC-1 (TNFα) LD50 (PPC-1 cells [2]): A (A = ≤ 25 micromolar) |
| CN[C@@H](C)C(=O)N[C@H]1CCN[C@H]2CCC(C(=O)N[C@@H]3CCCc4ccccc43)N2C1=O (stereo partly shown) [Product 28] | > 50 | – | – |
| CN[C@@H](C)C(=O)N[C@H]1CCN[C@H]2CCC(C(=O)N[C@@H]3CCCc4ccccc43)N2C1=O (stereo partly shown) [Product 29] | – | > 50 | – |
| CN[C@@H](C)C(=O)N[C@H]1Cc2c([nH]c3ccccc23)[C@H]2CCC(C(=O)N[C@@H]3CCCc4ccccc43)N2C1=O (stereo partly shown) [Product 30] | > 50 | 25 to 50 | – |
| CN[C@@H](C)C(=O)N[C@H]1Cc2c([nH]c3ccccc23)[C@H]2CCC(C(=O)N[C@@H]3CCCc4ccccc43)N2C1=O (stereo partly shown) [Product 31] | < 25 | < 25 | – |
| CN[C@@H](C)C(=O)N[C@H]1CCO[C@H]2CC[C@@H](C(=O)N[C@@H]3CCCc4ccccc43)N2C1=O [Product 33] | > 50 | < 25 | Ki (ML-IAP; Table B-1): < 25 µM; PPC-1 (TRAIL) LD50 (PPC-1 cells [1]): A (A = ≤ 25 micromolar); PPC-1 (TNFα) LD50 (PPC-1 cells [2]): A (A = ≤ 25 micromolar) |
| CN[C@@H](C)C(=O)N[C@H]1CCS[C@H]2CC[C@@H](C(=O)N[C@@H]3CCCc4ccccc43)N2C1=O [Product 34] | > 50 | < 25 | Ki (ML-IAP; Table B-1): < 25 µM; PPC-1 (TRAIL) LD50 (PPC-1 cells [1]): A (A = ≤ 25 micromolar); PPC-1 (TNFα) LD50 (PPC-1 cells [2]): A (A = ≤ 25 micromolar) |
| CN[C@@H](C)C(=O)N[C@H]1CCS[C@H]2CC(C)(C)C(C(=O)N[C@@H]3CCCc4ccccc43)N2C1=O (stereo partly shown) [Product 35] | < 25 | < 25 | Ki (ML-IAP; Table B-1): < 25 µM; PPC-1 (TRAIL) LD50 (PPC-1 cells [1]): A (A = ≤ 25 micromolar); PPC-1 (TNFα) LD50 (PPC-1 cells [2]): A (A = ≤ 25 micromolar) |
| CN[C@@H](C)C(=O)N[C@H]1CCS[C@H]2CC[C@H](C(=O)N[C@@H]3CCCc4ccccc43)N2C1=O [Product 36] | > 50 | < 25 | Ki (ML-IAP; Table B-1): < 25 µM |
| CN[C@@H](C)C(=O)N[C@H]1CCS(=O)(=O)[C@H]2CC[C@@H](C(=O)N[C@@H]3CCCc4ccccc43)N2C1=O [Product 37] | > 50 | < 25 | – |
| CN[C@@H](C)C(=O)N[C@H]1CCS(=O)(=O)[C@H]2CC[C@H](C(=O)N[C@@H]3CCCc4ccccc43)N2C1=O [Product 38] | > 50 | – | – |
| CN[C@@H](C)C(=O)N[C@H]1CCO[C@H]2CC[C@H](C(=O)N[C@@H]3CCOc4ccccc43)N2C1=O [Product 39] | > 50 | – | – |
| CN[C@@H](C)C(=O)N[C@H]1CCO[C@H]2CC(C)(C)C(C(=O)Nc3ccccc3SSc3ccccc3NC(=O)C3N4C(=O)[C@@H](NC(=O)[C@H](C)NC)CCO[C@H]4CC3(C)C)N2C1=O (stereo partly shown) [Product 40] | < 25 | < 25 | – |
| CN[C@@H](C)C(=O)N[C@H]1CCS[C@H]2CCCC(C(=O)N[C@@H]3CCCc4ccccc43)N2C1=O (stereo partly shown) [Product 41] | < 25 | < 25 | – |
| CN[C@@H](C)C(=O)N[C@H]1CCO[C@H]2CC3(CC=CC3)C(C(=O)N[C@@H]3CCCc4ccccc43)N2C1=O (stereo partly shown) [Product 42] | < 25 | < 25 | Ki (ML-IAP; Table B-1): < 25 µM |
| CN[C@@H](C)C(=O)N[C@H]1CCO[C@H]2CC3(CCCC3)C(C(=O)N[C@@H]3CCCc4ccccc43)N2C1=O (stereo partly shown) [Product 43] | < 25 | < 25 | – |
| CN[C@@H](C)C(=O)N[C@H]1Cc2ccc(O)cc2[C@H]2CC(C)(C)C(C(=O)N[C@@H]3CCCc4ccccc43)N2C1=O (stereo partly shown) [Product 45] | < 25 | < 25 | – |
| CN[C@@H](C)C(=O)N[C@H]1CC(=O)N[C@H]2CC(C)(C)C(C(=O)N[C@@H]3CCCc4ccccc43)N2C1=O (stereo partly shown) [Product 46] | > 50 | < 25 | Ki (ML-IAP; Table B-1): < 25 µM |
